Measurements published in US20250215460A1, “MICROBIAL […] THE CONVERSION OF CARBOHYDRATES” (Ohio State Innovation Foundation, priority 2022, published 2025).

System: C. tyrobutyricum
Experiment: Batch fermentation in stirred-tank bioreactor on glucose and xylose with acetate and benzyl viologen added
Format: cell-based, Clostridium tyrobutyricum
Conditions: in the presence of 3.75 μM BV (0.30 g/g before BV addition); pH 6.0, ~18 g/L acetate added at ~48 h
Protocol: Batch fermentation in a stirred-tank bioreactor with C. tyrobutyricum grown on glucose and xylose at pH 6.0 was studied with the addition of ˜18 g/L acetate and 3.75 μM benzyl viologen (BV) at ˜48 h. With BV and acetate addition, C. tyrobutyricum converted glucose, xylose, and acetate simultaneously to butyrate as the sole fermentation product with close to 100% purity at an overall yield of ˜0.48 g/g substrate. Almost all glucose and acetate (both produced before BV addition and externally added) were consumed to produce butyrate, reaching a high concentration of ˜46 g/L. Butyric acid yield from sugars increased from 0.30 g/g before BV addition to 0.52 g/g from both sugars and acetate consumed in the presence of 3.75 μM BV. The theoretical yield of butyric acid from glucose in the fermentation is 0.8 mol/mol (0.39 g/g) when acetate (0.4 mol/mol) and carbon dioxide (2 mol/mol) are also produced as co-products. In contrast, butyrate formation from acetate has a theoretical yield of 0.73 g/g (0.5 mol/mol), which is 87.2% higher than that from glucose, because no substrate carbon is lost in carbon dioxide. In addition to the higher butyrate yield, butyrate was produced as the only main product in the fermentation with a high acid purity of 98.3%, which was much higher than ˜80% in typical butyric acid fermentation. […]

## c1ccc(C[n+]2ccc(-c3cc[n+](Cc4ccccc4)cc3)cc2)cc1 [BV, benzyl viologen]
  Butyric acid yield from both sugars and acetate consumed: 0.52 g/g
